{"source": "patent US20110045100A1", "about": "“Antimalarial Quinolines and Methods of Use Thereof” (GEORGETOWN UNIVERSITY, priority 2008, published 2011)", "key": {"[1]": {"system": "FCB (CQR strain of P. falciparum)", "experiment": "SYBR Green I antiplasmodial assay, strain FCB", "assay_type": "cell-based, Plasmodium falciparum", "conditions": "compared with CQ", "excerpt": "(§1) Bennett T. N.; Paguio, M.; Gligorijevic, B.; Seudieu, C.; Kosar, A. D.; Davidson, E.; Roepe, P. D. Novel, rapid, and inexpensive cell-based quantification of antimalarial drug efficacy. Antimicrob. Agents Chemother. 2004, 48, 1807-1810; Smilkstein, M.; Sriwilaijaroen, N.; Kelly, J. X.; Wilairat, P.; Riscoe, M. Simple and inexpensive fluorescence-based technique for high-throughput antimalarial drug screening. Antimicrob. Agents Chemother. 2004, 48, 1803-1806; and Johnson, J. D.; Dennull, R. A.; Gerena, L.; Lopez-Sanchez, M.; Roncal, N. E.; Waters, N.C. Assessment and continued validation of the malaria SYBR green I-based fluorescence assay for use in malaria drug screening. Antimicrob. Agents Chemother. 2007, 51, 1926-1933. […] Drake, N. L.; Creech, H. J.; Garman, J. A.; Haywood, S. T.; Peck, R. M.; van Hook, J. O.; Walton, E. Synthetic antimalrials. The preparation of certain 4-aminoquinolines. J. Am. Chem. Soc. […] Trans. R. Soc. Trop. Med. Hyg. […] J. Parasitol. 1983, 69, 97-105. The selectivity index provides a quantitative measure of the antimalarial activity against CQR strains relative to that against sensitive strains and thus indicates promising drug discovery leads. […] This can be combined with the introduction of a third basic amino function which should further favor accumulation of the drug within the acidic food vacuole of the parasite.\n(§2) Drug activities were assessed and IC50 were quantified essentially as described previously. Delarue, S.; Girault, S.; Maes, L.; Debreu-Fontaine, M. A.; Labaeid, M.; Grellier, P.; Sergheraert, C. Synthesis and in vitro and in vivo antimalarial activity of new 4-anilinoquinolines. J. Med. Chem. 2001, 44, 2827-2833; and O'Neill, P. M.; Willock, D. J.; Hawley, S. R.; Bray, P. G.; Storr, R. C.; Ward, S. A.; Park, B. K. Synthesis, antimalarial activity, and molecular modeling of tebuquine analogues. J. Med. Chem. 1997, 40, 437-448. The aminoquinolines were diluted using complete media under sterile conditions and plated in a 96 well plate format. Sorbitol synchronized cultures were utilized with >95% of the parasites at the ring stage. Cultures were diluted to give a working stock of 0.5% parasitemia and 2% hematocrit (final hematocrit 1% & 0.5% Parasitemia). The plates were incubated for 72 h at 37° C. After 72 h, 50 μL of 10×SYBR green I dye was added to each well, and the plate was incubated for 1 h at 37° C. Fluorescence was measured at 530 nm (490 nm excitation) using a spectra geminiEM plate reader. Data analysis was performed using sigma plot 9.0 software after downloading data in Excel format."}, "[2]": {"system": "Dd2 (chloroquine resistant strain of P. falciparum)", "experiment": "SYBR Green I antiplasmodial assay, strain Dd2", "assay_type": "cell-based, Plasmodium falciparum", "conditions": "for activity against the CQ resistant strain Dd2 in comparison with CQ: compared with CQ", "excerpt": "as §1\nThe antiplasmodial activity of these compounds was measured versus a CQS (HB3) and a CQR (Dd2) strain using a standardized, inexpensive assay based on SYBR Green I intercalation. Bennett T. N.; Paguio, M.; Gligorijevic, B.; Seudieu, C.; Kosar, A. D.; Davidson, E.; Roepe, P. D. Antimicrob. Agents Chemother. 2004, 48, 1807-1810; Smilkstein, M.; Sriwilaijaroen, N.; Kelly, J. X.; Wilairat, P.; Riscoe, M. Antimicrob. Agents Chemother. 2004, 48, 1803-1806; and Johnson, J. D.; Dennull, R. A.; Gerena, L.; Lopez-Sanchez, M.; Roncal, N. E.; Waters, N.C. Antimicrob. Agents Chemother. 2007, 51, 1926-1933. […] De, D.; Krogstad, F. M.; Cogswell, F. B.; Krogstad, D. J. Am. J. Trop. Med. Hyg. 1996, 55, 579-583. […] The basic tertiary amino function in the side chain is commonly believed to be crucial for the accumulation of the drug within the acidic food DV.\nas §2"}, "[3]": {"system": "CQS and CQR strains of P. falciparum", "conditions": "cited from earlier work; for antimalarial activity against certain CQS and CQR strains relative to chloroquine, reported by Jensen: diastereomeric mixtures"}, "[4]": {"system": "CQS (HB3, GCO3) and CQR (Dd2, FCB) strains of P. falciparum", "experiment": "SYBR Green I antiplasmodial assay, several CQS and CQR strains", "assay_type": "cell-based, Plasmodium falciparum", "conditions": "for activity vs. both CQR and CQS strains relative to 93: FIG. 23", "excerpt": "as §1\nBennett T. N.; Paguio, M.; Gligorijevic, B.; Seudieu, C.; Kosar, A. D.; Davidson, E.; Roepe, P. D. Novel, rapid, and inexpensive cell-based quantification of antimalarial drug efficacy. Antimicrob. Agents Chemother. 2004, 48, 1807-1810; Smilkstein, M.; Sriwilaijaroen, N.; Kelly, J. X.; Wilairat, P.; Riscoe, M. Simple and inexpensive fluorescence-based technique for high-throughput antimalarial drug screening. Antimicrob. Agents Chemother. 2004, 48, 1803-1806; and Johnson, J. D.; Dennull, R. A.; Gerena, L.; Lopez-Sanchez, M.; Roncal, N. E.; Waters, N.C. Assessment and continued validation of the malaria SYBR green I-based fluorescence assay for use in malaria drug screening. Antimicrob. Agents Chemother. 2007, 51, 1926-1933.\nDrug activities were assessed and IC50 were quantified essentially as described previously. Delarue, S.; Girault, S.; Maes, L.; Debreu-Fontaine, M. A.; Labaeid, M.; Grellier, P.; Sergheraert, C. Synthesis and in vitro and in vivo antimalarial activity of new 4-anilinoquinolines. J. Med. Chem. 2001, 44, 2827-2833; and O'Neill, P. M.; Willock, D. J.; Hawley, S. R.; Bray, P. G.; Storr, R. C.; Ward, S. A.; Park, B. K. Synthesis, antimalarial activity, and molecular modeling of tebuquine analogues. J. Med. Chem. 1997, 40, 437-448."}}}
{"molecule": "CCN(CC)CCCN(CCCN)c1ccnc2cc(Cl)ccc12", "note": "[4b, N-(7-Chloro-4-quinolyl)-N-(3-diethylaminopropyl)-1,3-diaminopropane]", "values": [{"measurement": "potency against FCB in comparison with CQ", "setting": "[1]", "value": "significantly more potent"}, {"measurement": "activity against the CQ resistant strain Dd2 in comparison with CQ", "setting": "[2]", "value": "clearly superior activity"}]}
{"molecule": "CCN(CC)CCCN(CC)CCNc1ccnc2cc(Cl)ccc12", "note": "[5a, N-(7-Chloro-4-quinolyl)-N-ethyl-N-(3-diethylaminopropyl)-1,2-diaminoethane]", "values": [{"measurement": "potency against FCB in comparison with CQ", "setting": "[1]", "value": "significantly more potent"}, {"measurement": "activity against the CQ resistant strain Dd2 in comparison with CQ", "setting": "[2]", "value": "clearly superior activity"}]}
{"molecule": "CCN(CC)CCCN(CC)CCCNc1ccnc2cc(Cl)ccc12", "note": "[5b, N-(7-Chloro-4-quinolyl)-N-ethyl-N-(3-diethylaminopropyl)-1,3-diaminopropane]", "values": [{"measurement": "potency against FCB in comparison with CQ", "setting": "[1]", "value": "significantly more potent"}, {"measurement": "activity against the CQ resistant strain Dd2 in comparison with CQ", "setting": "[2]", "value": "clearly superior activity"}]}
{"molecule": "CCN(CC)CCCN(CC)CCCCCNc1ccnc2cc(Cl)ccc12", "note": "[5d, N-(7-Chloro-4-quinolyl)-N-ethyl-N-(3-diethylaminopropyl)-1,5-diaminopentane]", "values": [{"measurement": "potency against FCB in comparison with CQ", "setting": "[1]", "value": "significantly more potent"}, {"measurement": "activity against the CQ resistant strain Dd2 in comparison with CQ", "setting": "[2]", "value": "clearly superior activity"}]}
{"molecule": "CCNC1CCCC(N(CC)c2ccnc3cc(Cl)ccc23)C1", "note": "(centres unmarked) [16a, N-(7-Chloro-4-quinolyl)-N,N′-diethyl-1,3-diaminocyclohexane]", "values": [{"measurement": "antimalarial activity against certain CQS and CQR strains relative to chloroquine, reported by Jensen", "setting": "[3]", "value": "higher antimalarial activity"}, {"measurement": "activity against the CQ resistant strain Dd2 in comparison with CQ", "setting": "[2]", "value": "clearly superior activity"}]}
{"molecule": "CC(C)NC1CCCC(Nc2ccnc3cc(Cl)ccc23)C1", "note": "(centres unmarked) [16b, N-(7-Chloro-4-quinolyl)-N′-isopropyl-1,3-diaminocyclohexane]", "values": [{"measurement": "activity against the CQ resistant strain Dd2 in comparison with CQ", "setting": "[2]", "value": "clearly superior activity"}]}
{"molecule": "CCNC1CCC(N(CC)c2ccnc3cc(Cl)ccc23)CC1", "note": "(centres unmarked) [17a, N-(7-Chloro-4-quinolyl)-N,N′-diethyl-1,4-diaminocyclohexane]", "values": [{"measurement": "antimalarial activity against certain CQS and CQR strains relative to chloroquine, reported by Jensen", "setting": "[3]", "value": "higher antimalarial activity"}, {"measurement": "potency against FCB in comparison with CQ", "setting": "[1]", "value": "significantly more potent"}, {"measurement": "activity against the CQ resistant strain Dd2 in comparison with CQ", "setting": "[2]", "value": "clearly superior activity"}]}
{"molecule": "CC(C)NC1CCC(Nc2ccnc3cc(Cl)ccc23)CC1", "note": "(centres unmarked) [17b, N-(7-Chloro-4-quinolyl)-N′-isopropyl-1,4-diaminocyclohexane]", "values": [{"measurement": "potency against FCB in comparison with CQ", "setting": "[1]", "value": "significantly more potent"}, {"measurement": "activity against the CQ resistant strain Dd2 in comparison with CQ", "setting": "[2]", "value": "clearly superior activity"}]}
{"molecule": "CCN(CCNc1ccnc2cc(Cl)ccc12)CCNS(=O)(=O)c1cccc2cccnc12", "note": "[compound 33]", "values": [{"measurement": "activity against Dd2 in words", "setting": "[2]", "value": "relatively high activity"}]}
{"molecule": "NCCCN(C(=O)c1ccc(F)cc1NCc1ccccc1)c1ccnc2cc(Cl)ccc12", "note": "[compound 53, N-(7-Chloro-4-quinolyl)-N-(2-benzylamino-4-fluorobenzoyl)-1,3-diaminopropane]", "values": [{"measurement": "activity against Dd2 compared with HB3", "setting": "[2]", "value": "significantly more active against Dd2 than HB3"}]}
{"molecule": "CCNCCNc1ccnc2cc(Cl)ccc12", "note": "[compound 81, N-(7-Chloro-4-quinolyl)-N′-ethyl-1,2-diaminoethane]", "values": [{"measurement": "IC50 vs. CQR strains, earlier reports", "setting": "[3]", "value": "high IC50"}]}
{"molecule": "CCNCCCNc1ccnc2cc(Cl)ccc12", "note": "[compound 82, N-(7-Chloro-4-quinolyl)-N′-ethyl-1,3-diaminopropane]", "values": [{"measurement": "IC50 vs. CQR strains, earlier reports", "setting": "[3]", "value": "high IC50"}]}
{"molecule": "CCN(CC)CCNc1ccnc2cc(Cl)ccc12", "note": "[compound 86, N-(7-Chloro-4-quinolyl)-N′,N′-diethyl-1,2-diaminoethane]", "values": [{"measurement": "IC50 vs. CQR strains, earlier reports", "setting": "[3]", "value": "substantially lower IC50"}]}
{"molecule": "CCN(CC)CCCNc1ccnc2cc(Cl)ccc12", "note": "[compound 87, N-(7-Chloro-4-quinolyl)-N′,N′-diethyl-1,3-diaminopropane]", "values": [{"measurement": "IC50 vs. CQR strains, earlier reports", "setting": "[3]", "value": "substantially lower IC50"}]}
{"molecule": "CCN(CC)CCCCCOc1ccnc2cc(Cl)ccc12", "note": "[compound 94, O-(7-Chloro-4-quinolyl)-5-(N,N-diethylamino)pentanol]", "values": [{"measurement": "IC50", "setting": "[4]; Plasmodium falciparum, read-out: IC50 vs. CQR parasites", "value": "~1000", "unit": "nM"}]}
{"molecule": "CCN(CC)CC(CN(CC)CC)Oc1ccnc2cc(Cl)ccc12", "note": "[compound 101, 7-Chloro-4-(1′,3′-bis(diethylamino)-2′-propoxy)quinoline]", "values": [{"measurement": "activity vs. both CQR and CQS strains relative to 93", "setting": "[4]", "value": "significantly less active"}]}
{"molecule": "CCN(CC)CCCCC(CCCCN(CC)CC)Oc1ccnc2cc(Cl)ccc12", "note": "[compound 103, 7-Chloro-4-(1′,9′-bis(diethylamino)-5′-nonoxy)quinoline]", "values": [{"measurement": "activity vs. both CQR and CQS strains relative to 93", "setting": "[4]", "value": "improved activity"}]}
{"molecule": "CCNCCCC(C)Nc1ccnc2cc(Cl)ccc12", "note": "(centres unmarked) [desethyl CQ, reference compound]", "values": [{"measurement": "activity vs. some CQR strains relative to CQ, previous studies", "setting": "[3]; some CQR strains", "value": "lower activity"}]}
